{"source": "patent US12011431B2", "about": "“Pharmaceutical composition for preventing or treating sensorineural hearing loss, containing forskolin and retinoic acid as active ingredients” (AJOU UNIVERSITY INDUSTRY-ACADEMIC COOPERATION FOUNDATION, priority 2018, dated 2024)", "key": {"[1]": {"system": "tumor-induced ototoxic hearing loss animal model", "experiment": "Auditory brainstem response (ABR) test in tumor-induced ototoxic hearing loss animal model", "type": "in vivo, Balb/c/nu/nu mice", "conditions": "1 week after 2 weeks of administration, cisplatin 12 mg/kg 5 times a week, forskolin 2.5 mg/kg 6 times a week", "procedure": "In order to exclude mice having congenitally abnormal hearing, a preliminary hearing test was performed on all mice before the experiment. An auditory brainstem response (ABR) test was conducted on the immunodeficient Balb/c/nu/nu mice and then a lung cancer cell line (A549) was xenografted subcutaneously into the mice to produce a tumor-induced animal model (FIG. 1).\n(§1) The produced tumor-induced animal model was classified into (1) a physiological saline group (Vehicle), (2) a forskolin administration group (forskolin), (3) a cisplatin administration group (cisplatin), and (4) a cisplatin+forskolin combination administration group (cisplatin+forskolin), and each drug was administered to each group. Cisplatin was administered at 12 mg/kg 5 times a week, forskolin was administered at 2.5 mg/kg 6 times a week for a total of 2 weeks, the auditory brainstem response test was performed again 1 week after all administration was completed, and hematoxylin-eosin staining was performed for histological analysis. The auditory brainstem response (ABR) test is a method that determines the minimum stimulus level (dB) as a hearing threshold when applying tone burst sounds at 16 kHz and 32 kHz using a TDT ABR device."}, "[2]": {"system": "auditory hair cells, supporting cells and spiral ganglion cells in the organ of Corti", "experiment": "Hematoxylin-eosin staining of the cochlea in tumor-induced ototoxic hearing loss animal model", "type": "in vivo, Balb/c/nu/nu mice", "conditions": "basal and middle turns of the cochlea; forskolin given with cisplatin", "procedure": "as §1, with “device. In addition, loss and damage of the auditory hair cells, supporting cells and spiral ganglion cells in the organ of Corti during the basal and middle turns of the cochlea were evaluated using hematoxylin-eosin staining.” for “device.”"}, "[3]": {"system": "lung cancer cell line (A549) xenograft", "experiment": "Cisplatin anticancer effect in tumor-induced animal model (tumor size)", "type": "in vivo, Balb/c/nu/nu mice", "conditions": "intraperitoneal for 5 days, then reared for 7 days", "procedure": "In order to exclude mice having congenitally abnormal hearing, a preliminary hearing test was performed on all mice before the experiment. An auditory brainstem response (ABR) test was conducted on the immunodeficient Balb/c/nu/nu mice and then a lung cancer cell line (A549) was xenografted subcutaneously into the mice to produce a tumor-induced animal model (FIG. 1). After tumor formation in the tumor-induced ototoxic hearing loss animal model of Example 1, mice were randomly classified, and then (1) physiological saline (vehicle), (2) forskolin, (3) cisplatin or (4) a combination of cisplatin and forskolin was administered intraperitoneally to the mice for 5 days, and then the mice were reared for 7 days. The average tumor volume and body weight of each group were measured every week (FIGS. 4A and 4B). In addition, the weight of each of the extracted tumor and kidney was also measured (FIG. 4E)."}, "auditory hair cells": {"system": "auditory hair cells", "experiment": "Histological examination of the cochlea in conventional ototoxic hearing loss animal model", "type": "in vivo, SD (Sprague-Dawley) rats", "conditions": "basal and middle turns in the cochlea; cisplatin 16 mg/kg i.p.; forskolin intratympanic; after 5 days", "procedure": "In order to exclude mice having congenitally abnormal hearing, a preliminary hearing test was performed on all mice before the experiment. An auditory brainstem response (ABR) test was conducted on 7-week-old SD (Sprague-Dawley) rats and then 16 mg/kg/7 ml of a cisplatin anticancer drug was administered intraperitoneally once to induce ototoxic hearing loss (FIG. 2). Before and after cisplatin administration, forskolin was intratympanically injected (IT) into one ear once in an amount of 25 μM in 20 μL a total of two times, and physiological saline containing DMSO as a control group was injected into the other ear. After 5 days, an auditory brainstem response (ABR) test and a histological examination were performed to evaluate the effect of preventing induction of forskolin-cAMP activity against ototoxic hearing loss."}, "HEI-OCl cells": {"system": "HEI-OCl cells", "experiment": "Inhibition of cisplatin-induced apoptosis in auditory cell line (calcein AM, cleaved PARP and caspase 3)", "type": "cell-based", "conditions": "cisplatin 25 μM", "procedure": "An auditory cell line expressing auditory genes (HEI-OCl; House-Ear Institute-organ of Corti 1) was used, and the HEI-OCl cells were incubated in DMEM medium (Dulbecco's modified Eagle's Medium) containing a high concentration of glutamine, supplemented with 10% fetal bovine serum (FBS) and 25 U/ml of interferon gamma at 33° C. and 10% CO2. The cells were treated with cisplatin at a concentration of 25 μM, and the effects of forskolin and retinoic acid were analyzed under conditions in which about 40 to 50% of cells were killed by cisplatin ototoxicity. In order to analyze the effects of forskolin and retinoic acid on ototoxicity, experimental groups were classified into (1) normal, (2) forskolin, (3) retinoic acid, (4) cisplatin, (5) cisplatin+forskolin, (6) cisplatin+retinoic acid, (7) cisplatin+forskolin+retinoic acid. Cisplatin was administered in an amount of 25 μM, forskolin was administered in an amount of 20 μM, and retinoic acid was administered in an amount of 50 μM. Then, viable cells were observed using calcein AM, a fluorescent stain applicable to live cells, and cleaved PARP and caspase 3, as apoptosis markers, were identified at the protein level."}}, "data": [{"smiles": "N.N.[Cl][Pt][Cl]", "note": "[cisplatin, cis-diaminedichloroplatinum (II)]", "values": [{"measurement": "hearing threshold (ABR)", "setting": "[1]; 16 kHz", "value": 29, "unit": "dB"}, {"measurement": "hearing threshold (ABR)", "setting": "[1]; 32 kHz", "value": 31, "unit": "dB"}, {"measurement": "loss and damage of auditory outer hair cells (hematoxylin-eosin staining)", "setting": "[2]", "value": "a number of the auditory outer hair cells during the basal and middle turns were found to be lost"}, {"measurement": "effect of reducing a tumor size compared to the control group", "setting": "[3]", "value": "about 50%"}, {"measurement": "loss of auditory hair cells (histological examination)", "setting": "auditory hair cells", "value": "loss of a number of auditory hair cells"}, {"measurement": "cells killed by cisplatin ototoxicity", "setting": "HEI-OCl cells", "value": "40 to 50", "unit": "%"}, {"measurement": "cell viability / apoptosis (calcein staining, cleaved PARP and caspase 3)", "setting": "HEI-OCl cells; forskolin 20 μM, retinoic acid 50 μM", "value": "apoptosis of cisplatin-induced auditory cell lines was observed"}]}]}
